Two molecules from patent publication US11046690B2, “Pyridazinones and methods of use thereof” (Goldfinch Bio, Inc., priority 2018, dated 2021) can be followed below.

The test deals with T1, TRPC5 (Homo sapiens, UniProt Q9UL62).
T1 construct: expressed in transfected cells
T1 sequence (Q9UL62 1-973): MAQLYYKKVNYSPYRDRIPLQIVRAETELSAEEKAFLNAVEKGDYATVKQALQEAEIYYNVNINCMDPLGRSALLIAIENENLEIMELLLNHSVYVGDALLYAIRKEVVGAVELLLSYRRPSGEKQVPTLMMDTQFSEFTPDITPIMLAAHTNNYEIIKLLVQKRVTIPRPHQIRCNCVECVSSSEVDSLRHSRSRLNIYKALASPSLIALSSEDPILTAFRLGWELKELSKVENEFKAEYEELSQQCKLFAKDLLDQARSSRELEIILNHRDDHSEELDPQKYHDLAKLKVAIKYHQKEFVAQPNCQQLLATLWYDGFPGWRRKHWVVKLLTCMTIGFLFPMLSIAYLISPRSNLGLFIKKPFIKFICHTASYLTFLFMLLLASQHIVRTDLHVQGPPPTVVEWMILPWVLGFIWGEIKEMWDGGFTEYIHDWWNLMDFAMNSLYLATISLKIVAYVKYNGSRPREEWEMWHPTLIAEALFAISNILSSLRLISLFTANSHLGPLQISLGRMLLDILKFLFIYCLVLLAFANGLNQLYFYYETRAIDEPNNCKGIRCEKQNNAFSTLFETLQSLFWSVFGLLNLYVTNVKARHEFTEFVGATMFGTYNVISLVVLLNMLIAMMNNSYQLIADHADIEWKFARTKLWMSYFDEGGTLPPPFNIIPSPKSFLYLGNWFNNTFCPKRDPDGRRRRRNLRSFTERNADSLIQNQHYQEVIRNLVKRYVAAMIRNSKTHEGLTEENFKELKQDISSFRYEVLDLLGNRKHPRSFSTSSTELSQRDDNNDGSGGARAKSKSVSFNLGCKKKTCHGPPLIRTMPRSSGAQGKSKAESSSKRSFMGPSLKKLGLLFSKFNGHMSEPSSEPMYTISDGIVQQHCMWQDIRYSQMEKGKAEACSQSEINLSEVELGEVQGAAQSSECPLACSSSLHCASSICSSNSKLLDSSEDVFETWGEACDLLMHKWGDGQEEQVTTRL
As to the kind of experiment: TRPC5 activity assay (FLIPR calcium fluorescence, Riluzole stimulation). The test is classed as cell-based. The following applies: HEK-TREx hTRPC5 cells, 30 μM Riluzole stimulation; read-out: TRPC5 (IC50 class). The protocol:
ICLN-1633 cells (HEK-TREx hTRPC5) expressing TRPC5 were generated as follows. Commercially available HekTrex-293 cells were seeded at 0.7×10^6 cells/well in a 1×6-well plate 24 hrs prior to transfection using 2 mL cell growth media containing no antibiotics (1× DMEM/high glucose (Hyclone #SH30022.02); 10% fetal bovine serum (Sigma) 2 mM sodium pyruvate, 10 mM HEPES). […] On day 2, 2 μg of plasmid DNA plus 6 μl of Xtreme-GENE HP reagent in Optimem (200 μl total volume) was prepared and incubated for 15 min at room temperature. This plasmid solution was then gently overlayed dropwise onto each well and the plate was gently swirled to mix complex with the media for approximately 30 seconds. Transfected cells were incubated at 37° C. in a 10%/CO2 incubator for 24 hrs. The transfected cells were harvested and transferred into 2×150 mm dishes containing cell growth media with no antibiotics at 37° C.
The next day selection was initiated to generate a stable pool by adding cell growth media containing 150 μg/mL Hygromycin and 5 μg/mL Blasticidin and cells were allowed to grow. Media with the selection agent was changed every 1-2 days as needed to remove dead cells. After 7 days, the hygromycin concentration was reduced to 75 μg/mL and cells growth was allowed to continue.
Single clones were selected as follows. The stable pool was diluted to 10 cells/mL and seeded (100 μl/well) into 24×96 well plates (˜1 cell/well) and allowed to grow for 7 days in cell growth media. Fresh media (100 μl) was added and the cells allowed to grow for another 1-2 weeks and then stored frozen or used immediately.
10-point dose response curves were generated using the Echo-550 acoustic dispenser. Compound source plates were made by serially diluting compound stocks to create 10 mM, 1 mM, and 0.1 mM solutions in DMSO into Echo certified LDV plates. The Echo then serially spotted 100%/DMSO stock solutions into source dose response plates to generate a 4-fold dilution scheme. 100%0/DMSO was added to the spotted dose response plates to bring the final volume to 5 μl. 300 nl of the dose response stock plate was then spotted into pre-incubation and stimulation assay plates. 50 μl of pre-incubation buffer and 100 μl of stimulation buffer was then added to the plates resulting in a final assay test concentration range of 30 μM to 0.0001 μM with a final DMSO concentration of 0.3%.
Human ICLN-1633 cells expressing were plated onto 384 well, black PDL-coated microplates and maintained in TRPC5 growth media the day prior to use for experiments. TRPC5 expression was induced by the application of 1 μg/mL tetracycline at the time of plating. […] Cells are incubated at room temperature, protected from light, for 60-90 minutes. After the incubation period, the dye is removed and replaced with 10 μl of EBSS. Cell, pre-incubation and stimulation plates are loaded onto the FLIPR-II and the assay is initiated. The FLIPR measures a 10 second baseline and then adds 10 μl of 2X compounds (or controls). Changes in fluorescence are monitored for an additional 5 minutes. After the 5 minute pre-incubation, 20 μl of 2X Riluzole (with 1X compound or controls) is added to the cell plate. The final Riluzole stimulation concentration in the assay is 30 μM. After the Riluzole addition, changes in fluorescence are monitored for an additional 5 minutes.
Compound modulation of TRPC5 calcium response was determined as follows. After the Englerin A, fluorescence was monitored for a 5-minute period. The maximum relative fluorescence response (minus the control response of 1 μM of an internal control compound known to maximally block TRPC5 calcium response, the “REF INHIB” in the formula below) was captured and exported from the FLIPR.
Compound effect is calculated as % inhibition using the following formula:
[formula] wherein “RFU” is the relative fluorescent units.

Regarding `CC1Cc2c(ncnc2Oc2ccc(F)cc2Cl)CN1c1cn[nH]c(=O)c1Cl` (single isomer, unassigned) [Compound 117], the IC50 is under 50 nM.

For `O=c1[nH]ncc(N2CCc3c(ncnc3Oc3ccc(F)cc3Cl)C2)c1Cl` [Compound 104], the half-inhibitory concentration (IC50) is under 50 nM.

By IC50 is commonly meant the concentration that gives 50% inhibition.
